Here are results for 9 compounds from patent US20160311831A1, “Imidazotriazinones as PDE1 Inhibitors” (H. Lundbeck A/S, priority 2015, published 2016).

Each structure is given as a SMILES string. pIC50: −log10 of the molar value.

Format in all cases: biochemical
One experiment concerns the target PDE9 (Homo sapiens, UniProt O76083). Kind of experiment: PDE9 inhibition assay, SPA with 3H-cAMP. The conditions noted are these: compound at 10 microM; 10 nM 3H-cAMP, 1 hr incubation. The protocol: A PDE9 assay may for example, be performed as follows: The assay is performed in 60 μL samples containing a fixed amount of the relevant PDE enzyme (sufficient to convert 20-25% of the cyclic nucleotide substrate), a buffer (50 mM HEPES7.6; 10 mM MgCl2; 0.02% Tween20), 0.1 mg/mL BSA, 225 pCi of ^3H-labelled cyclic nucleotide substrate, tritium labeled cAMP to a final concentration of 5 nM and varying amounts of inhibitors. Reactions are initiated by addition of the cyclic nucleotide substrate, and reactions are allowed to proceed for one hr at room temperature before being terminated through mixing with 15 μL 8 mg/mL yttrium silicate SPA beads (Amersham). The beads are allowed to settle for one hr in the dark before the plates are counted in a Wallac 1450 Microbeta counter. The measured signal can be converted to activity relative to an uninhibited control (100%) and IC50 values can be calculated using the Xlfit extension to EXCEL.
In the context of the present invention the assay was performed in 60 uL assay buffer (50 mM HEPES pH 7.6; 10 mM MgCl2; 0.02% Tween20) containing enough PDE9 to convert 20-25% of 10 nM ^3H-cAMP and varying amounts of inhibitors. Following a 1 hr incubation the reactions were terminated by addition of 15 uL 8 mg/mL yttrium silicate SPA beads (Amersham). The beads were allowed to settle for one hr in the dark before the plates were counted in a Wallac 1450 Microbeta counter.

For the next experiment, the target named is PDE1B (Homo sapiens, UniProt Q01064). Kind of experiment: PDE1 inhibition assay (PDE1B), SPA with tritium labelled cAMP. The note with it: 15 nM tritium labelled cAMP, 1 hr at room temperature. The procedure:
(§1) PDE1A, PDE1B and PDE1C assays were performed as follows: the assays was performed in 60 μL samples containing a fixed amount of the PDE1 enzym1 (sufficient to convert 20-25% of the cyclic nucleotide substrate), a buffer (50 mM HEPES pH 7.6; 10 mM MgCl2; 0.02% Tween20), 0.1 mg/mL BSA, 15 nM tritium labelled cAMP and varying amounts of inhibitors. Reactions were initiated by addition of the cyclic nucleotide substrate, and reactions were allowed to proceed for 1 hr at room temperature before being terminated through mixing with 20 μL (0.2 mg) yttrium silicate SPA beads (PerkinElmer). The beads were allowed to settle for 1 hr in the dark before the plates were counted in a Wallac 1450 Microbeta counter. The measured signals were converted to activity relative to an uninhibited control (100%) and IC50 values were calculated using XIFit (model 205, IDBS).

Another experiment addresses PDE1C (Homo sapiens, UniProt Q14123). Kind of experiment: PDE1 inhibition assay (PDE1C), SPA with tritium labelled cAMP. The note with it: 15 nM tritium labelled cAMP, 1 hr at room temperature. The procedure:
as §1

The target of another experiment is PDE1A (Homo sapiens, UniProt P54750). Kind of experiment: PDE1 inhibition assay (PDE1A), SPA with tritium labelled cAMP. The conditions noted are these: 15 nM tritium labelled cAMP, 1 hr at room temperature. The protocol: as §1
PDE1A, sequence (P54750 whole entry): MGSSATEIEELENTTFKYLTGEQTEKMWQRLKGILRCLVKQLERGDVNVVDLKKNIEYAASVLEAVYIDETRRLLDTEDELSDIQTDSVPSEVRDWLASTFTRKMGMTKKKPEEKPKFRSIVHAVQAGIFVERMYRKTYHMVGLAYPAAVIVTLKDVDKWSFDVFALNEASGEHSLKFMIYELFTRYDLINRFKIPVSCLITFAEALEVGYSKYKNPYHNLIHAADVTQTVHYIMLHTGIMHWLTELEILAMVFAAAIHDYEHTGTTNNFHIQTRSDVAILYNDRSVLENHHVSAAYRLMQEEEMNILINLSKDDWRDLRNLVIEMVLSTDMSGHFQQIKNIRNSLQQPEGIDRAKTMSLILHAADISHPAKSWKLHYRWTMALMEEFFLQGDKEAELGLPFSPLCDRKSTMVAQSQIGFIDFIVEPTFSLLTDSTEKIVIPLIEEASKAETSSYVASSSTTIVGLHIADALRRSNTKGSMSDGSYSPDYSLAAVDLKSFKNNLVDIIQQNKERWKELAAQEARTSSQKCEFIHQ

PDE1B, sequence (Q01064 whole entry): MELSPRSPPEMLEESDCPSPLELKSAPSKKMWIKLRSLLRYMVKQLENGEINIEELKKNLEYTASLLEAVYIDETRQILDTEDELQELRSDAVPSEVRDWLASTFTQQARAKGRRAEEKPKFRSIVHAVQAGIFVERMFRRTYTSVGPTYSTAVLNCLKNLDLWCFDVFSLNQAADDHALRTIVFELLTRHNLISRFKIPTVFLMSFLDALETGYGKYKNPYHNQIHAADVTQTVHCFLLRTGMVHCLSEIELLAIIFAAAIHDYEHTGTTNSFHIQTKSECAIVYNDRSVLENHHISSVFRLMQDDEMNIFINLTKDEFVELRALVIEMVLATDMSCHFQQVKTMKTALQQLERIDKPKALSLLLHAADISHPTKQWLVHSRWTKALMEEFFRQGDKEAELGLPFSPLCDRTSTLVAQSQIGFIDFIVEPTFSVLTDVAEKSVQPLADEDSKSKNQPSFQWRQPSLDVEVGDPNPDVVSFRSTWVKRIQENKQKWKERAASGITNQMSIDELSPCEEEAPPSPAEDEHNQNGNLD
PDE9, sequence (O76083 whole entry): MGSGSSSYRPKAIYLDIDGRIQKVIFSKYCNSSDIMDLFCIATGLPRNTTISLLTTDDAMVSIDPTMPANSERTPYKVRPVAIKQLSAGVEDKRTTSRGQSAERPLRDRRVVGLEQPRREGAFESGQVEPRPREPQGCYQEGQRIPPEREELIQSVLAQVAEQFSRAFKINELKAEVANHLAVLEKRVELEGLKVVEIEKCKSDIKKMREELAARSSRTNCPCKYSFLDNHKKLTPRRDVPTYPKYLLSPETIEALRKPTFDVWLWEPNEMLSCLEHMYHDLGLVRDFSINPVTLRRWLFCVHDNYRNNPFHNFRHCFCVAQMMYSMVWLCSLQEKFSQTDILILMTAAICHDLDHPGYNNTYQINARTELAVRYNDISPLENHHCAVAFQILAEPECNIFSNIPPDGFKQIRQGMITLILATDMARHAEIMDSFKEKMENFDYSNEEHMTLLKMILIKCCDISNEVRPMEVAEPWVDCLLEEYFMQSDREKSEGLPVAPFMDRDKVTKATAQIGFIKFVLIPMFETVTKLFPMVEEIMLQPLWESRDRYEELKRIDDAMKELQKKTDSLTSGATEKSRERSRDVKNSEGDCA
PDE1C, sequence (Q14123 whole entry): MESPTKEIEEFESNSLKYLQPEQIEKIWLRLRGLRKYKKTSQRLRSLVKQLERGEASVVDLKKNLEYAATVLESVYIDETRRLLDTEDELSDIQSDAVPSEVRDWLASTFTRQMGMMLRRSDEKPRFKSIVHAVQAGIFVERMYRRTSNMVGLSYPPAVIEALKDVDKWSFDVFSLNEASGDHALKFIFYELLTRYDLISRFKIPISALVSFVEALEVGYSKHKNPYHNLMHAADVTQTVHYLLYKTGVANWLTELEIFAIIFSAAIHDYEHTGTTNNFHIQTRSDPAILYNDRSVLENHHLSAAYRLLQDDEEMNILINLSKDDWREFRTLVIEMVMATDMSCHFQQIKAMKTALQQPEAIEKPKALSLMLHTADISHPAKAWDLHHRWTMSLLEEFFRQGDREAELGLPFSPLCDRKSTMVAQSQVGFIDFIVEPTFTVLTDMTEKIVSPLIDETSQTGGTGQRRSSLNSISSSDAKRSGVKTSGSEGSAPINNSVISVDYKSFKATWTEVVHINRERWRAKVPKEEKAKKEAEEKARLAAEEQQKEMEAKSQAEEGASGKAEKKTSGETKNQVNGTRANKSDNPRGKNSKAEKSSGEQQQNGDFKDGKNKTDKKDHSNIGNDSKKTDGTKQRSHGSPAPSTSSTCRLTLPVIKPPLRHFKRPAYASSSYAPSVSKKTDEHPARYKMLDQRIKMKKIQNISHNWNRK

By inhibition is commonly meant the drop in the measured response relative to a control, in per cent. By pIC50 is commonly meant the negative decadic logarithm of the IC50, by convention in mol/L. Read a low pIC50 as a high IC50. For the compound `Cc1ccc(Cn2c(C)nn3c(C4CCOCC4)ncc3c2=O)cc1` [Example 22, 2-Methyl-3-(4-methylbenzyl)-7-(tetrahydro-2H-pyran-4-yl)imidazo[5,1-f][1,2,4]triazin-4(3H)-one], at PDE9, the inhibition at 10 µM was 18%. Moreover, the pIC50 against PDE1B was 7.18; against PDE1C, 7.11; against PDE1A it was 7.24.

Regarding `Cc1ccc(Cc2nn3c(C4CCOCC4)ncc3c(=O)n2C)cc1` [Example 2, 3-Methyl-2-(4-methylbenzyl)-7-(tetrahydro-2H-pyran-4-yl)imidazo[5,1-f][1,2,4]triazin-4(3H)-one], the inhibition at 10 µM against PDE9 was 4%. The figures for the pIC50 at PDE1B, at PDE1C and at PDE1A were 6.59, 6.01 and 6.14, respectively.

With `Cc1nn2c(C3CCOCC3)ncc2c(=O)n1Cc1cccc(Cl)c1` [Example 17, 3-(3-Chlorobenzyl)-2-methyl-7-(tetrahydro-2H-pyran-4-yl)imidazo[5,1-f][1,2,4]triazin-4(3H)-one], the inhibition at 10 µM at PDE9 amounted to 5%. Further, the negative-log IC50 (pIC50) was 6.80 at PDE1B, 7.85 at PDE1C and 7.20 on PDE1A.

Consider `Cc1ccc(Cc2nn3c(C4CCOCC4)ncc3c(=O)n2CC2CCOC2)cc1` (single isomer, unassigned) [12 Stereoisomer 2], for which the “% inhibition of PDE9 at 10 microM” value on PDE9 is given as 7%. In addition, the pIC50 is 7.17 on PDE1B, 6.82 against PDE1C and 7.00 at PDE1A.

Regarding `CCCn1c(Cc2ccc(C)cc2)nn2c(C3CCOCC3)ncc2c1=O` [Example 4, 2-(4-Methylbenzyl)-3-propyl-7-(tetrahydro-2H-pyran-4-yl)imidazo[5,1-f][1,2,4]triazin-4(3H)-one], the inhibition at 10 µM against PDE9 was 9%. The figures for the pIC50 on PDE1B, at PDE1C and on PDE1A were 7.40, 7.21 and 7.08, respectively.

For `O=c1c2cnc(C3CCOCC3)n2ncn1CC1CCCCC1` [Example 26, 3-(Cyclohexylmethyl)-7-(tetrahydro-2H-pyran-4-yl)imidazo[5,1-f][1,2,4]triazin-4(3H)-one], on PDE9, the inhibition at 10 µM is 8%. For the same compound, the figures for the pIC50 on PDE1B, against PDE1C and against PDE1A were 6.42, 6.99 and 6.26, respectively.

Turning to `Cc1ccc(Cc2nn3c(C4CCOCC4)ncc3c(=O)n2CC2CCCC2)cc1` [Example 6, 3-(Cyclopentylmethyl)-2-(4-methylbenzyl)-7-(tetrahydro-2H-pyran-4-yl)imidazo[5,1-f][1,2,4]triazin-4(3H)-one], the inhibition at 10 µM against PDE9 turned out to be 2%. Also, the pIC50 against PDE1B is 7.20; against PDE1C, 8.40; against PDE1A it was 7.54.

With `Cc1ccc(Cc2nn3c(C4CCOCC4)ncc3c(=O)n2CC2CCOCC2)cc1` [Example 9, 2-(4-Methylbenzyl)-7-(tetrahydro-2H-pyran-4-yl)-3-((tetrahydro-2H-pyran-4-yl)methyl)imidazo[5,1-f][1,2,4]triazin-4(3H)-one], the inhibition at 10 µM at PDE9 turned out to be 12%. Also, the pIC50 on PDE1B was 6.44; on PDE1C it was 7.64; against PDE1A it was 6.23.

`Cc1cccc(Cn2c(C)nn3c(C4CCOCC4)ncc3c2=O)c1` [Example 18, 2-Methyl-3-(3-methylbenzyl)-7-(tetrahydro-2H-pyran-4-yl)imidazo[5,1-f][1,2,4]triazin-4(3H)-one]: on PDE9, the inhibition at 10 µM is -30%. Besides, the values for the pIC50 on PDE1B, against PDE1C and against PDE1A were 6.73, 7.70 and 6.58, respectively.
